MIC, MBC and IC50 data for 37 compounds are collected here from ChEMBL document CHEMBL5244218, “Quinolone derivatives and their activities against methicillin-resistant Staphylococcus aureus (MRSA)” (Eur J Med Chem, 2018).

By MIC is commonly meant the smallest concentration in the dilution series that meets the test's criterion for growth inhibition. A word on the MBC: it is the lowest tested concentration that kills the bacteria rather than only halting them. One may read the IC50 as the concentration that gives 50% inhibition. Lower therefore signals inhibition by little substance.

Values after ≈ are worked out from the molar mass of the structure shown. Where only a bound is given, the exact number is not on record here.

Assay [1] concerns Staphylococcus aureus. Put plainly: Antimicrobial activity against methicillin-resistant Staphylococcus aureus. It is filed as functional, organism-based.
In assay [2] the test system is Staphylococcus aureus. Put plainly: Antimicrobial activity against methicillin-resistant Staphylococcus aureus incubated for 18 hrs by Alamar blue staining based analysis. The format is functional.
In assay [3] the test system is Staphylococcus aureus. Briefly: Antibacterial activity against methicillin-resistant Staphylococcus aureus assessed as inhibition of microbial growth. It is filed as functional.
In assay [4] the test system is Staphylococcus aureus. Briefly: Antimicrobial activity against methicillin-resistant Staphylococcus aureus assessed as inhibition of microbial growth. The format is functional.
The test system of assay [5] is Staphylococcus aureus. Briefly: Antibacterial activity against methicillin-resistant Staphylococcus aureus. It is filed as functional.
For assay [6], the system named is Staphylococcus aureus. Put plainly: Antimicrobial activity against methicillin-resistant Staphylococcus aureus incubated for 18 hrs by Agar dilution method. The format is functional. (In agar dilution, organisms are placed on agar that contains the substance at set levels.)
Assay [7] deals with Staphylococcus aureus. Briefly: Bactericidal activity against methicillin-resistant Staphylococcus aureus assessed as inhibition of microbial growth. It is filed as functional.

`CCO/N=C1\CCN(c2c(F)cc3c(=O)c(C(=O)O)cn(C4CC4)c3c2F)CC1(C)CN` (stereo not drawn) registered an MIC in the assay with Staphylococcus aureus [1] of 8 µg/mL (≈ 17.8 µM).

`CCc1ccc(O/N=C2/CCN(c3c(F)cc4c(=O)c(C(=O)O)cn(C5CC5)c4c3OC)CC2N)cc1CC` (stereo not drawn) came in with an MIC with Staphylococcus aureus [2] of 0.008 µg/mL (≈ 0.0149 µM).

On to `CC1(C)CN(c2ccc3c(=O)c(C(=O)O)cn(C4CC4)c3c2)CC1CN` (stereo not drawn), for which the MIC in the assay on Staphylococcus aureus [3] worked out at 0.015 µg/mL.

`COc1ccc(C2=CN3c4c(c(=O)c(C(=O)O)cn4C4CC4)C=C(F)C3N=N2)cc1` (stereo not drawn): the MIC in the assay on Staphylococcus aureus [4] came to 0.25 µg/mL.

In the assay with Staphylococcus aureus [2], `COc1c(N2CC/C(=N/Oc3ccccc3)C(N)C2)c(F)cc2c(=O)c(C(=O)O)cn(C3CC3)c12` (stereo not drawn) displayed an MIC of 0.008 µg/mL (≈ 0.0166 µM).

As to `Cc1ccc(C2=CN3c4c(c(=O)c(C(=O)O)cn4C4CC4)C=C(F)C3N=N2)cc1` (stereo not drawn), the MIC in the assay with Staphylococcus aureus [4] came to 0.25 µg/mL.

`COc1c(N2CCOCC2)c(F)cc2c(=O)c(C(=O)Nc3nccs3)cn(C3CC3)c12`: the MIC with Staphylococcus aureus [5] is above 201 µg/mL.

`Nc1[nH]nc2c1CN(c1c(F)cc3c(=O)c(C(=O)O)cn(C4CC4)c3c1F)C2`: in the assay with Staphylococcus aureus [6], the minimal inhibitory concentration (MIC) was determined as 0.125 µg/mL (≈ 0.323 µM).

For `Nc1ccc(C2=CN3c4c(c(=O)c(C(=O)O)cn4C4CC4)C=C(F)C3N=N2)cc1` (stereo not drawn), the MIC in the assay with Staphylococcus aureus [4] amounted to 0.25 µg/mL.

Take `COc1c(N2CCCC2)c(F)cc2c(=O)c(C(=O)Nc3nccs3)cn(C3CC3)c12`: the MIC against Staphylococcus aureus [5] was above 201 µg/mL.

`Nc1[nH]nc2c1CN(c1nc3c(cc1F)c(=O)c(C(=O)O)cn3C1CC1)C2` returned a minimum inhibitory concentration (MIC) with Staphylococcus aureus [6] of 0.125 µg/mL (≈ 0.338 µM).

On to `CCn1cc(C(=O)O)c(=O)c2cc(F)c(N3Cc4nn(C)c(N)c4C3)c(F)c21`, for which the MIC in the assay with Staphylococcus aureus [6] came to 0.125 µg/mL (≈ 0.321 µM).

Take `COc1ccc(C(=O)N2CCN(C(=O)N3CCN(c4ccc5c(=O)c(C(=O)O)cn(C6CC6)c5c4)CC3)CC2)c(OC)c1`: the MBC with Staphylococcus aureus [7] is at least 128 µg/mL. Further, in the assay with Staphylococcus aureus [4], the MIC is below 0.016 µg/mL.

In the case of `COc1ccc(C2=CN3c4c(c(=O)c(C(=O)O)cn4C4CC4)C=C(F)C3N=N2)cc1OC` (stereo not drawn), the MIC with Staphylococcus aureus [4] came to 0.25 µg/mL.

As for `COc1ccc(C(=O)N2CCN(C(=O)N3CCN(c4ccc5c(=O)c(C(=O)O)cn(C6CC6)c5c4)CC3)CC2)cc1`, the MBC in the assay with Staphylococcus aureus [7] was at least 128 µg/mL. The MIC in the assay on Staphylococcus aureus [4] was below 0.016 µg/mL.

Turning to `COc1ccccc1O/N=C1/CCN(c2c(F)cc3c(=O)c(C(=O)O)cn(C4CC4)c3c2OC)CC1N` (stereo not drawn), the MIC against Staphylococcus aureus [2] was determined as 0.008 µg/mL (≈ 0.0157 µM).

Take `Cn1nc2c(c1N)CN(c1nc3c(cc1F)c(=O)c(C(=O)O)cn3-c1ccc(F)cc1F)C2`: in the assay with Staphylococcus aureus [6], the MIC was found to be 0.125 µg/mL (≈ 0.274 µM).

On to `COc1ccc(C(=O)N2CCN(C(=O)N3CCN(c4ccc5c(=O)c(C(=O)O)cn(C6CC6)c5c4)CC3)CC2)cc1OC`, for which the MBC in the assay on Staphylococcus aureus [7] was at least 128 µg/mL. Further, in the assay on Staphylococcus aureus [4], the MIC was below 0.016 µg/mL.

On to `O=C(O)c1cn(C2CC2)c2c(c1=O)C=C(F)C1N=NC(c3ccc(O)cc3)=CN21` (stereo not drawn), for which the MIC with Staphylococcus aureus [4] worked out at 0.25 µg/mL.

`CC(=O)c1c(N2Cc3n[nH]c(N)c3C2)c(F)cc2c(=O)c(C(=O)O)cn(C3CC3)c12` returned an MIC against Staphylococcus aureus [6] of 0.125 µg/mL (≈ 0.304 µM).

The compound `COc1c(N2CCCCC2)c(F)cc2c(=O)c(C(=O)Nc3nccs3)cn(C3CC3)c12` gave an MIC against Staphylococcus aureus [5] above 201 µg/mL.

Turning to `Cn1nc2c(c1N)CN(c1c(F)cc3c(=O)c(C(=O)O)cn(C4CC4)c3c1F)C2`, in the assay with Staphylococcus aureus [6], the MIC came to 0.125 µg/mL (≈ 0.311 µM).

Regarding `COc1cccc(C(=O)N2CCN(C(=O)N3CCN(c4ccc5c(=O)c(C(=O)O)cn(C6CC6)c5c4)CC3)CC2)c1`, the MBC in the assay on Staphylococcus aureus [7] is at least 128 µg/mL. Further, the MIC with Staphylococcus aureus [4] is below 0.016 µg/mL.

As to `Cc1ccccc1C1=CN2c3c(c(=O)c(C(=O)O)cn3C3CC3)C=C(F)C2N=N1` (stereo not drawn), the MIC in the assay with Staphylococcus aureus [4] was 0.25 µg/mL.

Turning to `Nc1[nH]nc2c1CN(c1c(F)cc3c(=O)c(C(=O)O)cn(C4CC4)c3c1C(=O)C(F)F)C2`, 0.125 µg/mL (≈ 0.279 µM) was the least that counted as inhibitory in the assay on Staphylococcus aureus [6] (MIC).

`O=C(O)c1c[nH]c2cc(N3CCN([C@@H]4O[C@H](CO)[C@@H](O)[C@H](O)[C@H]4O)CC3)c(F)cc2c1=O`: in the assay on Staphylococcus aureus [4], the MIC came out at 0.5 µg/mL.

Turning to `CNCC1CN(c2cc(N)c3c(=O)c(C(=O)O)cn(C4CC4)c3c2C(C)=O)CC1(C)C` (stereo not drawn), in the assay with Staphylococcus aureus [3], the MIC was found to be 0.015 µg/mL.

Regarding `Nc1cccc(C2=CN3c4c(c(=O)c(C(=O)O)cn4C4CC4)C=C(F)C3N=N2)c1` (stereo not drawn), the MIC in the assay on Staphylococcus aureus [4] was found to be 0.25 µg/mL.

As for `Nc1[nH]nc2c1CN(c1nc3c(cc1F)c(=O)c(C(=O)O)cn3-c1ccc(F)cc1F)C2`, the MIC against Staphylococcus aureus [6] worked out at 0.125 µg/mL (≈ 0.283 µM).

Consider `CC(=O)c1c(N2CC(CN)C(C)(C)C2)ccc2c(=O)c(C(=O)O)cn(C3CC3)c12` (stereo not drawn), for which the MIC in the assay with Staphylococcus aureus [3] worked out at 0.015 µg/mL.

As to `CNCC1CN(c2ccc3c(=O)c(C(=O)O)cn(C4CC4)c3c2)CC1(C)C` (stereo not drawn), the MIC in the assay on Staphylococcus aureus [3] was found to be 0.015 µg/mL.

Consider `CO/N=C1\CN(c2nc3c(cc2F)c(=O)c(C(=O)O)cn3C2CC2)CC1CN` (stereo not drawn) [GEMIFLOXACIN], for which the MIC against Staphylococcus aureus [6] was 0.06 µg/mL (≈ 0.154 µM); in the assay on Staphylococcus aureus [2] it was 4 µg/mL (≈ 10.3 µM).

Regarding `COc1cc(=O)n(C)c2ccccc12`, the IC50 in the assay with Staphylococcus aureus [1] was determined as 8 µM.

In the case of `COc1ccccc1C(=O)N1CCN(C(=O)N2CCN(c3ccc4c(=O)c(C(=O)O)cn(C5CC5)c4c3)CC2)CC1`, the MBC with Staphylococcus aureus [7] is at least 128 µg/mL. Besides, in the assay on Staphylococcus aureus [4], the MIC was below 0.016 µg/mL.

In the assay on Staphylococcus aureus [2], `COc1ccc(OC)c(O/N=C2/CCN(c3c(F)cc4c(=O)c(C(=O)O)cn(C5CC5)c4c3OC)CC2N)c1` (stereo not drawn) had an MIC of 0.008 µg/mL (≈ 0.0148 µM).

Turning to `O=C(O)c1cn(C2CC2)c2c(c1=O)C=C(F)C1N=NC(c3ccc(Cl)cc3)=CN21` (stereo not drawn), the MIC in the assay with Staphylococcus aureus [4] is 0.25 µg/mL.

Turning to `Cn1nc2c(c1N)CN(c1c(F)cc3c(=O)c(C(=O)O)cn(C4CC4)c3c1C(=O)C(F)F)C2`, the MIC in the assay on Staphylococcus aureus [6] worked out at 0.125 µg/mL (≈ 0.271 µM).
